Values of other authors as cited in patent US10695734B2, “Microcapsule comprising a polyester-urethane shell and a hydrophilic core material” (BASF SE, priority 2015, dated 2020).
Where a name gives a salt, the structure may show the parent alone.

Conditions: at 20° C.

| SMILES | water solubility [mg/mL] |
| --- | --- |
| COc1c(Cl)ccc(Cl)c1C(=O)O [dicamba sodium salt] | > 100 |
| O=C(O)CNCP(=O)(O)O [glyphosate potassium salt] | > 500 |
